Experimental data published in ChEMBL document CHEMBL1137153, “Synthesis of 7 alpha- and 7 beta-spermidinylcholesterol, squalamine analogues” (2004).
In brackets after ≈: the same amount, converted by molar mass.

Assays:
Format in all cases: functional
[1] = test system: Escherichia coli; assay: Minimal inhibitory concentration against Escherichia coli (strain 54127) after 48 hr of incubation was evaluated
[2] = test system: Enterococcus hirae; assay: Minimal inhibitory concentration against Enterococcus hirae (strain CIP 5855) after 48 hr of incubation was evaluated; conditions: CIP 5855, 48 h
[3] = test system: Candida albicans; assay: Minimal inhibitory concentration against Candida albicans (strain CIP 1180-79) after 48 hr of incubation was evaluated; conditions: CIP 1180-79, 48 h
[4] = test system: Saccharomyces cerevisiae; assay: Minimal inhibitory concentration against Saccharomyces cerevisiae (strain ATC 28383) after 48 hr of incubation was evaluated
[5] = test system: Staphylococcus aureus; assay: Minimal inhibitory concentration against Staphylococcus aureus (strain CIP 54127) after 48 hr of incubation was evaluated; conditions: CIP 54127, 48 h
[6] = test system: Candida albicans; assay: Minimal inhibitory concentration against Candida albicans (strain CIP 1180-79) after 48 hr of incubation was evaluated; Range = 4 - 8 ug/mL; conditions: CIP 1180-79, 48 h

| MIC [1] | MIC [2] | MIC [3] | MIC [4] | MIC [5] | MIC [6] | SMILES |
| --- | --- | --- | --- | --- | --- | --- |
| 6.25 µg/mL (≈ 11.8 µM) | 3.12 µg/mL (≈ 5.89 µM) | 6.25 µg/mL (≈ 11.8 µM) | 3.12 µg/mL (≈ 5.89 µM) | 3.12 µg/mL (≈ 5.89 µM) | – | CC(C)CCC[C@@H](C)[C@H]1CCC2C3C(CC[C@@]21C)[C@@]1(C)CC[C@H](O)CC1=C[C@H]3NCCCNCCCCN (stereo partly drawn) |
| 3.12 µg/mL (≈ 5.89 µM) | 6.25 µg/mL (≈ 11.8 µM) | 3.12 µg/mL (≈ 5.89 µM) | 3.12 µg/mL (≈ 5.89 µM) | 6.25 µg/mL (≈ 11.8 µM) | – | CC(C)CCC[C@@H](C)[C@H]1CCC2C3C(CC[C@@]21C)[C@@]1(C)CC[C@H](O)CC1=C[C@@H]3NCCCNCCCCN (stereo partly drawn) |
| > 100 µg/mL | – | – | – | 1.56 µg/mL (≈ 2.48 µM) | 8 µg/mL (≈ 12.7 µM) | CC(C)[C@@H](CC[C@@H](C)[C@H]1CC[C@H]2[C@@H]3[C@H](O)C[C@H]4C[C@@H](NCCCNCCCCN)CC[C@]4(C)[C@H]3CC[C@]12C)OS(=O)(=O)O [SQUALAMINE] |
